Measurements taken from patent publication US20240279221A1, “HETEROCYCLIC COMPOUNDS AND METHODS OF USE” (Schrödinger, Inc., priority 2021, published 2024).

Experiments:
human SOS1 = human SOS1 (Homo sapiens (Human), UniProt Q07889); test: Surface Plasmon Resonance (SPR) SOS1 Binding Assay; settings: biotinylated SOS1 (res. 564-1049), 25° C., kinetic or steady state fit, read-out: KD for hSOS1
How it was run: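 Biotinylated human SOS1 (res. 564-1049, N-terminal Avi tag) captured on streptavidin chip to ~3,000 RU; 25° C., Tris buffer pH 8.0 with 1 mM MgCl2, 5% DMSO running buffer. Compound series (top 100, 50 or 0.5 μM) injected 60 s, dissociation 600 s; double-referenced KD from 1:1 kinetic or steady-state fit.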

[1] = target: SOS1:KRAS (G12C) interaction (Homo sapiens (Human), UniProt Q07889); test: SOS1-KRas(G12C) FRET Assay; assay type: binding; settings: 0.5 nM His10-SOS1 (res. 564-1049), 2.5 nM GST-KRAS (res. 1-169, G12C); read-out: SOS-KRas(G12C) FRET IC50
Chain of SOS1:KRAS (G12C) interaction (Q07889 564-1049, stated change not applied): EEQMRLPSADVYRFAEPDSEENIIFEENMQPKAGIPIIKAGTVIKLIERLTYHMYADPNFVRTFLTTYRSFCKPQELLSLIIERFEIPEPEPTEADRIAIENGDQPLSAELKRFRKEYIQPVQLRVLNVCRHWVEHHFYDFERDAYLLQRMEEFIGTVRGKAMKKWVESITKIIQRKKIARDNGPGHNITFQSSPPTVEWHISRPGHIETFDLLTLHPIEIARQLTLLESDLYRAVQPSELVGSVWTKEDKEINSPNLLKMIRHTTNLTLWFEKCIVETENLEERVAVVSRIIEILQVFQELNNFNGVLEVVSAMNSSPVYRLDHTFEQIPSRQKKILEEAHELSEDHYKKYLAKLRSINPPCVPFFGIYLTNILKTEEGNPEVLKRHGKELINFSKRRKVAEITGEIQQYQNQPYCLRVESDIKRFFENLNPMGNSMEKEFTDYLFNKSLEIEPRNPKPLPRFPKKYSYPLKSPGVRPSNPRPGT
How it was run: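 TR-FRET measured binding of His10-SOS1 (res. 564-1049, 0.5 nM) to GST-KRAS G12C (res. 1-169, 2.5 nM), with anti-GST-Eu(K) and anti-6His-XL665 labels, in PBS with BSA, MgCl2, KF and DTT; 0.5% DMSO. Compound and SOS1 were pre-incubated 15 min at 25° C, KRAS was added, and the plate was read at 665/615 nm after 2 h at RT. IC50 and Hill slope came from non-linear regression.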

Chain of human SOS1 (Q07889 564-1049): as the sequence (Q07889 564-1049, stated change not applied) above

| Compound | Kd (human SOS1) [nM] | IC50 [1] [nM] |
| --- | --- | --- |
| C[C@@H](Nc1nn(C)c(=O)c2cc(=O)n(C3(C#N)CC3)cc12)c1cccc(C(F)F)c1F [Example 66, (R)-1-(4-((1-(3-(difluoromethyl)-2-fluorophenyl)ethyl)amino)-2-methyl-1,7-dioxo-1,7-dihydropyrido[3,4-d]pyridazin-6(2H)-yl)cyclopropane-1-carbonitrile] | 26 | 72.5 |
| C[C@@H](Nc1nn(C)c(=O)c2cc(=O)n(C3CCOCC3)cc12)c1cccc2c1CCC2(F)F [Example 67, (R)-4-((1-(1,1-difluoro-2,3-dihydro-1H-inden-4-yl)ethyl)amino)-2-methyl-6-(tetrahydro-2H-pyran-4-yl)pyrido[3,4-d]pyridazine-1,7(2H,6H)-dione] | 10 | 24.6 |
| C[C@H](Nc1nn(C)c(=O)c2cc(=O)n(C3CCOCC3)cc12)c1cccc2c1CCC2(F)F [Example 68, (S)-4-((1-(1,1-difluoro-2,3-dihydro-1H-inden-4-yl)ethyl)amino)-2-methyl-6-(tetrahydro-2H-pyran-4-yl)pyrido[3,4-d]pyridazine-1,7(2H,6H)-dione] | 1490 | 1710 |
| C[C@@H](Nc1nn(C)c(=O)c2cc(=O)n(C3(C(F)(F)F)CC3)cc12)c1cccc(C(F)F)c1F [Example 71, (R)-4-((1-(3-(difluoromethyl)-2-fluorophenyl)ethyl)amino)-2-methyl-6-(1-(trifluoromethyl)cyclopropyl)-2,6-dihydropyrido[3,4-d]pyridazine-1,7-dione] | 31 | 69.8 |
| C[C@@H](Nc1nn(C)c(=O)c2c(Br)c(=O)n(C3(C(F)F)CC3)cc12)c1cccc(C(F)F)c1F [Example 72, (R)-8-bromo-4-((1-(3-(difluoromethyl)-2-fluorophenyl)ethyl)amino)-6-(1-(difluoromethyl)cyclopropyl)-2-methyl-2,6-dihydropyrido[3,4-d]pyridazine-1,7-dione] | 60 | 68.3 |
| Cc1c(=O)n(C2(C(F)F)CC2)cc2c(N[C@H](C)c3cccc(C(F)F)c3F)nn(C)c(=O)c12 [Example 74, (R)-4-((1-(3-(difluoromethyl)-2-fluorophenyl)ethyl)amino)-6-(1-(difluoromethyl)cyclopropyl)-2,8-dimethyl-2,6-dihydropyrido[3,4-d]pyridazine-1,7-dione] | 69 | 91 |
| C[C@@H](Nc1nn(C)c(=O)c2cc(=O)n(C3CC(C#N)C3)cc12)c1cccc(C(F)F)c1F (stereo partly drawn) [Example 76, (1r,3s)-3-(4-(((R)-1-(3-(difluoromethyl)-2-fluorophenyl)ethyl)amino)-2-methyl-1,7-dioxo-1,7-dihydropyrido[3,4-d]pyridazin-6(2H)-yl)cyclobutane-1-carbonitrile] | 37 | 92.8 |
| Cc1c([C@@H](C)Nc2nn(CCO)c(=O)c3cc(=O)n(C4CC4)cc23)cccc1C(F)(F)F [Example 77, (R)-6-cyclopropyl-2-(2-hydroxyethyl)-4-((1-(2-methyl-3-(trifluoromethyl)phenyl)ethyl)amino)-2,6-dihydropyrido[3,4-d]pyridazine-1,7-dione] | 61 | 305 |
| COC1(C)CN(CCn2nc(N[C@H](C)c3cccc(C(F)(F)F)c3C)c3cn(C4CC4)c(=O)cc3c2=O)C1 [Example 78, (R)-6-cyclopropyl-2-(2-(3-methoxy-3-methylazetidin-1-yl)ethyl)-4-((1-(2-methyl-3-(trifluoromethyl)phenyl)ethyl)amino)-2,6-dihydropyrido[3,4-d]pyridazine-1,7-dione] | 55 | 89 |
| Cc1c([C@@H](C)Nc2nn(CCN3CC(C)(F)C3)c(=O)c3cc(=O)n(C4CC4)cc23)cccc1C(F)(F)F [Example 79, (R)-6-cyclopropyl-2-(2-(3-fluoro-3-methylazetidin-1-yl)ethyl)-4-((1-(2-methyl-3-(trifluoromethyl)phenyl)ethyl)amino)-2,6-dihydropyrido[3,4-d]pyridazine-1,7-dione] | 124 | 300 |
| Cc1c([C@@H](C)Nc2nn(C)c(=O)c3c(N(C)C)c(=O)n(C4CC4)cc23)cccc1C(F)(F)F [Example 80, (R)-6-cyclopropyl-8-(dimethylamino)-2-methyl-4-((1-(2-methyl-3-(trifluoromethyl)phenyl)ethyl)amino)-2,6-dihydropyrido[3,4-d]pyridazine-1,7-dione] | 303 | 302 |

Further molecules by falling Kd (human SOS1), results first:

| Kd (human SOS1) [nM] | IC50 [1] [nM] | Compound |
| --- | --- | --- |
| 134 | 376 | Cc1c([C@@H](C)Nc2nn(C)c(=O)c3c(OC(C)C)c(=O)n(C4CC4)cc23)cccc1C(F)(F)F [Example 81, (R)-6-cyclopropyl-8-isopropoxy-2-methyl-4-((1-(2-methyl-3-(trifluoromethyl)phenyl)ethyl)amino)-2,6-dihydropyrido[3,4-d]pyridazine-1,7-dione] |
| 73 | 127 | C[C@H](Nc1nn(C)c(=O)c2cc(=O)n([C@H]3C[C@@H](C#N)C3)cc12)c1cccc(C(F)F)c1F [Example 75, (1S,3s)-3-(4-(((R)-1-(3-(difluoromethyl)-2-fluorophenyl)ethyl)amino)-2-methyl-1,7-dioxo-1,7-dihydropyrido[3,4-d]pyridazin-6(2H)-yl)cyclobutane-1-carbonitrile] |
| 51 | 476 | Cc1c([C@@H](C)Nc2nn(C)c(=O)c3c(OCC4CC4)c(=O)n(C4CC4)cc23)cccc1C(F)(F)F [Example 82, (R)-6-cyclopropyl-8-(cyclopropylmethoxy)-2-methyl-4-((1-(2-methyl-3-(trifluoromethyl)phenyl)ethyl)amino)-2,6-dihydropyrido[3,4-d]pyridazine-1,7-dione] |
| 31 | 126 | C[C@@H](Nc1nn(C)c(=O)c2cc(=O)n(C3CC3)cc12)c1cccc2sccc12 [Example 64, (R)-4-((1-(benzo[b]thiophen-4-yl)ethyl)amino)-6-cyclopropyl-2-methyl-2,6-dihydropyrido[3,4-d]pyridazine-1,7-dione] |
| 27 | 60.8 | COc1c(=O)n(C2(C(F)F)CC2)cc2c(N[C@H](C)c3cccc(C(F)F)c3F)nn(C)c(=O)c12 [Example 73, (R)-4-((1-(3-(difluoromethyl)-2-fluorophenyl)ethyl)amino)-6-(1-(difluoromethyl)cyclopropyl)-8-methoxy-2-methyl-2,6-dihydropyrido[3,4-d]pyridazine-1,7-dione] |
| 12 | 16.7 | C[C@@H](Nc1nn(C)c(=O)c2cc(=O)n(C3(C(F)F)CC3)cc12)c1cccc(C(F)(F)C(C)(C)O)c1F [Example 70, (R)-4-((1-(3-(1,1-difluoro-2-hydroxy-2-methylpropyl)-2-fluorophenyl)ethyl)amino)-6-(1-(difluoromethyl)cyclopropyl)-2-methyl-2,6-dihydropyrido[3,4-d]pyridazine-1,7-dione] |
| 10 | 34.8 | C[C@@H](Nc1nn(C)c(=O)c2cc(=O)n(C34CC(C(=O)N(C)C)(C3)C4)cc12)c1cccc(C(F)F)c1F [Example 69, (R)-3-(4-((1-(3-(difluoromethyl)-2-fluorophenyl)ethyl)amino)-2-methyl-1,7-dioxo-1,7-dihydropyrido[3,4-d]pyridazin-6(2H)-yl)-N,N-dimethylbicyclo[1.1.1]pentane-1-carboxamide] |
